PubChem BioAssay (NCI)
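48-hour exposure; five concentrations; linearly interpolated endpoints. TGI: concentration producing complete growth inhibition.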

How the values were obtained:
Test in all cases: NCI tumour cell line growth inhibition, 48 h
786-0 renal = test system: 786-0 renal
A498 renal = test system: A498 renal
A549 NSCLC = test system: A549 NSCLC
ACHN renal = test system: ACHN renal
BT-549 breast = test system: BT-549 breast
CAKI-1 renal = test system: CAKI-1 renal
CCRF-CEM leukemia = test system: CCRF-CEM leukemia
COLO 205 colon = test system: COLO 205 colon
DU-145 prostate = test system: DU-145 prostate
EKVX NSCLC = test system: EKVX NSCLC
HCC-2998 colon = test system: HCC-2998 colon
HCT-116 colon = test system: HCT-116 colon
HCT-15 colon = test system: HCT-15 colon
HL-60(TB) leukemia = test system: HL-60(TB) leukemia
HOP-62 NSCLC = test system: HOP-62 NSCLC
HOP-92 NSCLC = test system: HOP-92 NSCLC
HS 578T breast = test system: HS 578T breast
HT29 colon = test system: HT29 colon
IGROV1 ovarian = test system: IGROV1 ovarian
K-562 leukemia = test system: K-562 leukemia
KM12 colon = test system: KM12 colon
LOX IMVI melanoma = test system: LOX IMVI melanoma
M14 melanoma = test system: M14 melanoma
MALME-3M melanoma = test system: MALME-3M melanoma
MCF7 breast = test system: MCF7 breast
MDA-MB-231 breast = test system: MDA-MB-231 breast
MDA-MB-435 = test system: MDA-MB-435
MDA-N = test system: MDA-N
MOLT-4 leukemia = test system: MOLT-4 leukemia
NCI-H226 lung = test system: NCI-H226 lung
NCI-H23 lung = test system: NCI-H23 lung
NCI-H460 lung = test system: NCI-H460 lung
NCI-H522 lung = test system: NCI-H522 lung
NCI/ADR-RES ovarian = test system: NCI/ADR-RES ovarian
OVCAR-3 ovarian = test system: OVCAR-3 ovarian
OVCAR-4 ovarian = test system: OVCAR-4 ovarian
OVCAR-5 ovarian = test system: OVCAR-5 ovarian
OVCAR-8 ovarian = test system: OVCAR-8 ovarian
PC-3 prostate = test system: PC-3 prostate
RPMI-8226 leukemia = test system: RPMI-8226 leukemia
RXF 393 renal = test system: RXF 393 renal
SF-268 CNS = test system: SF-268 CNS
SF-295 CNS = test system: SF-295 CNS
SF-539 CNS = test system: SF-539 CNS
SK-MEL-2 melanoma = test system: SK-MEL-2 melanoma
SK-MEL-28 melanoma = test system: SK-MEL-28 melanoma
SK-MEL-5 melanoma = test system: SK-MEL-5 melanoma
SK-OV-3 ovarian = test system: SK-OV-3 ovarian
SN12C renal = test system: SN12C renal
SNB-19 CNS = test system: SNB-19 CNS
SNB-75 CNS = test system: SNB-75 CNS
SR leukemia = test system: SR leukemia
SW-620 colon = test system: SW-620 colon
T-47D breast = test system: T-47D breast
TK-10 renal = test system: TK-10 renal
U251 CNS = test system: U251 CNS
UACC-257 melanoma = test system: UACC-257 melanoma
UACC-62 melanoma = test system: UACC-62 melanoma
UO-31 renal = test system: UO-31 renal

N=[N+]=NC1C(O)C(CO)OC1n1cnc2c(N)ncnc21 (stereo not drawn)
TGI (786-0 renal): > 100 µM | TGI (A498 renal): > 100 µM | TGI (A549 NSCLC): > 100 µM | TGI (ACHN renal): 52.6 µM | TGI (BT-549 breast): > 100 µM | TGI (CAKI-1 renal): > 100 µM | TGI (CCRF-CEM leukemia): > 29.8 µM | TGI (COLO 205 colon): > 100 µM | TGI (DU-145 prostate): > 100 µM | TGI (EKVX NSCLC): > 100 µM | TGI (HCC-2998 colon): > 100 µM | TGI (HCT-116 colon): > 100 µM | TGI (HCT-15 colon): > 100 µM | TGI (HL-60(TB) leukemia): 6.44 µM | TGI (HOP-62 NSCLC): > 100 µM | TGI (HOP-92 NSCLC): > 100 µM | TGI (HS 578T breast): > 100 µM | TGI (HT29 colon): > 100 µM | TGI (IGROV1 ovarian): > 100 µM | TGI (K-562 leukemia): > 100 µM | TGI (KM12 colon): > 100 µM | TGI (LOX IMVI melanoma): > 83.5 µM | TGI (M14 melanoma): > 100 µM | TGI (MALME-3M melanoma): > 100 µM | TGI (MCF7 breast): > 100 µM | TGI (MDA-MB-231 breast): > 100 µM | TGI (MDA-MB-435): > 100 µM | TGI (MDA-N): > 100 µM | TGI (MOLT-4 leukemia): > 22.4 µM | TGI (NCI-H226 lung): 97.4 µM | TGI (NCI-H23 lung): > 80 µM | TGI (NCI-H460 lung): > 100 µM | TGI (NCI-H522 lung): > 100 µM | TGI (NCI/ADR-RES ovarian): > 100 µM | TGI (OVCAR-3 ovarian): > 100 µM | TGI (OVCAR-4 ovarian): > 100 µM | TGI (OVCAR-5 ovarian): > 100 µM | TGI (OVCAR-8 ovarian): > 100 µM | TGI (PC-3 prostate): > 100 µM | TGI (RPMI-8226 leukemia): > 100 µM | TGI (RXF 393 renal): > 100 µM | TGI (SF-268 CNS): > 100 µM | TGI (SF-295 CNS): > 100 µM | TGI (SF-539 CNS): > 76.2 µM | TGI (SK-MEL-2 melanoma): > 100 µM | TGI (SK-MEL-28 melanoma): > 100 µM | TGI (SK-MEL-5 melanoma): > 100 µM | TGI (SK-OV-3 ovarian): > 100 µM | TGI (SN12C renal): > 100 µM | TGI (SNB-19 CNS): > 100 µM | TGI (SNB-75 CNS): > 100 µM | TGI (SR leukemia): 7 µM | TGI (SW-620 colon): > 100 µM | TGI (T-47D breast): > 100 µM | TGI (TK-10 renal): > 100 µM | TGI (U251 CNS): > 100 µM | TGI (UACC-257 melanoma): > 100 µM | TGI (UACC-62 melanoma): > 100 µM | TGI (UO-31 renal): > 100 µM

O=C(c1c2c(cc3c1CC1(Cc4cc5c(cc4C1)CCCC5)C3)CCCC2)C(Br)Br
TGI (786-0 renal): 29.1 µM | TGI (A498 renal): 86.6 µM | TGI (A549 NSCLC): > 100 µM | TGI (ACHN renal): 27 µM | TGI (BT-549 breast): 21.6 µM | TGI (CAKI-1 renal): 24.2 µM | TGI (CCRF-CEM leukemia): 5.14 µM | TGI (COLO 205 colon): 32.7 µM | TGI (DU-145 prostate): > 100 µM | TGI (EKVX NSCLC): > 59.8 µM | TGI (HCC-2998 colon): 54.3 µM | TGI (HCT-116 colon): 29.1 µM | TGI (HCT-15 colon): 33 µM | TGI (HL-60(TB) leukemia): > 39.1 µM | TGI (HOP-62 NSCLC): > 81.7 µM | TGI (HOP-92 NSCLC): 31.9 µM | TGI (HS 578T breast): > 70.2 µM | TGI (HT29 colon): 44.5 µM | TGI (IGROV1 ovarian): 27.1 µM | TGI (K-562 leukemia): 18 µM | TGI (KM12 colon): 56.3 µM | TGI (LOX IMVI melanoma): 3.42 µM | TGI (M14 melanoma): 15.7 µM | TGI (MALME-3M melanoma): 10.7 µM | TGI (MCF7 breast): 20.2 µM | TGI (MDA-MB-231 breast): 38.2 µM | TGI (MDA-MB-435): 28.7 µM | TGI (MDA-N): 29 µM | TGI (MOLT-4 leukemia): 6.33 µM | TGI (NCI-H226 lung): 14.3 µM | TGI (NCI-H23 lung): 36.5 µM | TGI (NCI-H460 lung): > 100 µM | TGI (NCI-H522 lung): 3.18 µM | TGI (NCI/ADR-RES ovarian): 50.7 µM | TGI (OVCAR-3 ovarian): 38.9 µM | TGI (OVCAR-4 ovarian): 41.6 µM | TGI (OVCAR-5 ovarian): > 66.7 µM | TGI (OVCAR-8 ovarian): 50.4 µM | TGI (PC-3 prostate): 26.9 µM | TGI (RPMI-8226 leukemia): > 61.9 µM | TGI (RXF 393 renal): 28.7 µM | TGI (SF-268 CNS): 41.7 µM | TGI (SF-295 CNS): > 100 µM | TGI (SF-539 CNS): 38.3 µM | TGI (SK-MEL-2 melanoma): 39.6 µM | TGI (SK-MEL-28 melanoma): 30.7 µM | TGI (SK-MEL-5 melanoma): 14.4 µM | TGI (SK-OV-3 ovarian): 96.9 µM | TGI (SN12C renal): 44.9 µM | TGI (SNB-19 CNS): > 55.1 µM | TGI (SNB-75 CNS): 31.7 µM | TGI (SR leukemia): 8.05 µM | TGI (SW-620 colon): 20.5 µM | TGI (T-47D breast): 27.9 µM | TGI (TK-10 renal): 30.9 µM | TGI (U251 CNS): 30.3 µM | TGI (UACC-257 melanoma): 41.9 µM | TGI (UACC-62 melanoma): 34.3 µM | TGI (UO-31 renal): 26.8 µM
